The half-life is the time needed for the level to fall by half in the phase considered. Read a low half-life as fast loss. By CLint scaled is commonly meant the rate of metabolic loss divided by the concentration. In general, IC50 refers to the concentration that gives 50% inhibition.

We go through five compounds from US20150299219A1, “BICYCLIC PYRAZOLONE COMPOUNDS AND METHODS OF USE” (Calitor Sciences, LLC, priority 2014, published 2015).

Structures are written as SMILES.

Data set [1] is described as follows: Compound stability in human liver microsomes. It is filed as in vitro ADME. As to conditions: for half-life: pH 7.4, 0.5 mg protein/mL; for half-life / T1/2: NADPH, 37° C.; for CLint scaled: pH 7.4, in vivo CLint extrapolated; for T1/2: 0.5 mg protein/mL. As to the method: (§1) Human or rat liver microsomes incubations were conducted in duplicate in polypropylene tubes. The typical incubation mixtures consisted of human or rat liver microsomes (0.5 mg protein/mL), compounds of interest (5 μM) and NADPH (1.0 mM) in a total volume of 200 μL potassium phosphate buffer (PBS, 100 mM, pH 7.4). Compounds were dissolved in DMSO and diluted with PBS such that the final concentration of DMSO was 0.05%. The enzymatic reactions were commenced with the addition of protein after a 3-min preincubation and incubated in a water bath open to the air at 37° C. Reactions were terminated at various time points (0, 5, 10, 15, 30, 60 min) by adding equal volume of ice-cold acetonitrile. The samples were stored at −80° C. until LC/MS/MS assays.
(§2) The concentrations of compounds in the incubation mixtures of human or rat liver microsomes were determined by a LC/MS/MS method. The ranges of the linearity in the concentration range were determined for each tested compounds.
(§3) A parallel incubation was performed using denatured microsomes as the negative control, and reactions were terminated at various time points (0, 15, 60 min) after incubation at 37° C.
(§4) Dextromethorphan (70 μM) was selected as the positive control, and reactions were terminated at various time points (0, 5, 10, 15, 30, 60 min) after incubation at 37° C. Both positive and negative control samples were included in each assay to ensure the integrity of the microsomal incubation system.
(§5) Alternatively, the stability of some of the compounds disclosed herein in human (or rat) liver microsomes were also conducted in the following protocol. The incubations were conducted in duplicate in polypropylene tubes. The typical incubation mixtures consisted of liver microsomes (final concentration: 0.5 mg protein/mL), compounds (final concentration: 1.5 μM) in a total volume of 30 μL K-buffer (contain 1.0 mM EDTA, 100 mM, pH7.4). Compounds were dissolved in DMSO and diluted with K-buffer such that the final concentration of DMSO was 0.2%. The enzymatic reactions were commenced with the addition of 15 μL of NADPH (final concentration: 2 mM) after 10 min preincubation and incubated in a 37° C. incubator. Reactions were terminated at various time points (0, 15, 30, 60 min) by adding 135 μL acetonitrile (contain IS). Protein is removed by centrifugation with 4000 rpm, 10 min. Supernatant was collected for LCMS/MS analysis
(§6) In the above protocol, ketanserin (1 μM) was selected as the positive control, and reactions were terminated at various time points (0, 15, 30, 60 min) after incubation at 37° C. The positive control sample was included in each assay to ensure the integrity of the microsomal incubation system.
(§7) The concentrations of compounds in human or rat liver microsome incubations were plotted as a percentage of the relevant zero time point control for each reaction. The in vivo CLint were extrapolated (ref: Naritomi, Y.; Terashita, S.; Kimura, S.; Suzuki, A.; Kagayama, A.; and Sugiyama, Y.; Prediction of human hepatic clearance from in vivo animal experiments and in vitro metabolic studies with liver microsomes from animals and humans. Drug Metab. Dispos., 2001, 29: 1316-1324).

Data set [2] is described as follows: Compound stability in rat liver microsomes. It is filed as in vitro ADME. As to conditions: for half-life: pH 7.4, 0.5 mg protein/mL, NADPH, 37° C.; for CLint scaled: pH 7.4, in vivo CLint extrapolated. As to the method:
as §1, §2, §3, §4, §5, §6, §7

Data set [3] deals with T1, c-Met (h) (Homo sapiens, UniProt P08581).
T1 construct: purchased Millipore UK Ltd
The experiment in a line: c-Met (h) kinase assay. Format: biochemical. As to the method: Kinase assays can be performed by measurement of incorporation of γ-^33P ATP into immobilized myelin basic protein (MBP). High binding white 384 well plates (Greiner) are coated with MBP (Sigma #M-1891) by incubation of 60 μL/well of 20 μg/mL MBP in Tris-buffered saline (TBS; 50 mM Tris pH 8.0, 138 mM NaCl, 2.7 mM KCl) for 24 h at 4° C. Plates are washed 3× with 100 μL TBS. Kinase reactions are carried out in a total volume of 34 μL in kinase buffer (5 mM Hepes pH 7.6, 15 mM NaCl, 0.01% bovine gamma globulin (Sigma #I-5506), 10 mM MgCl2, 1 mM DTT, 0.02% TritonX-100). Compound dilutions are performed in DMSO and added to assay wells to a final DMSO concentration of 1%. Each data point is measured in duplicate, and at least two duplicate assays are performed for each individual compound determination. Enzyme is added to final concentrations of 10 nM or 20 nM, for example. A mixture of unlabeled ATP and γ-^33P ATP is added to start the reaction (2×10^6 cpm of γ-^33P ATP per well (3000 Ci/mmole) and 10 μM unlabeled ATP, typically. The reactions are carried out for 1 h at room temperature with shaking. Plates are washed 7× with TBS, followed by the addition of 50 μL/well scintillation fluid (Wallac). Plates are read using a Wallac Trilux counter. This is only one format of such assays; various other formats are possible, as known to one skilled in the art.
The above assay procedure can be used to determine the IC50 for inhibition and/or the inhibition constant, Ki. The IC50 is defined as the concentration of compound required to reduce the enzyme activity by 50% under the condition of the assay. The IC50 value is estimated by preparing a 10 point curve using a 1/2 log dilution series (for example, a typical curve may be prepared using the following compound concentrations: 10 μM, 3 μM, 1 μM, 0.3 μM, 0.1 μM, 0.03 μM, 0.01 μM, 0.003 μM, 0.001 μM and 0 μM).
Met (h) is incubated with 8 mM MOPS pH 7.0, 0.2 mM EDTA, 250 μM KKKSPGEYVNIEFG, 10 mM MgAcetate and [γ-^33P-ATP] (specific activity approx. 500 cpm/pmol, concentration as required). The reaction is initiated by the addition of the MgATP mix. After incubation for 40 minutes at room temperature, the reaction is stopped by the addition of 3% phosphoric acid solution. 10 μL of the reaction is then spotted onto a P30 filtermat and washed three times for 5 minutes in 75 mM phosphoric acid and once in methanol prior to drying and scintillation counting.
The kinase assays described herein were performed at Millipore UK Ltd, Dundee Technology Park, Dundee DD2 1SW, UK.

T1 sequence (P08581 25-1390): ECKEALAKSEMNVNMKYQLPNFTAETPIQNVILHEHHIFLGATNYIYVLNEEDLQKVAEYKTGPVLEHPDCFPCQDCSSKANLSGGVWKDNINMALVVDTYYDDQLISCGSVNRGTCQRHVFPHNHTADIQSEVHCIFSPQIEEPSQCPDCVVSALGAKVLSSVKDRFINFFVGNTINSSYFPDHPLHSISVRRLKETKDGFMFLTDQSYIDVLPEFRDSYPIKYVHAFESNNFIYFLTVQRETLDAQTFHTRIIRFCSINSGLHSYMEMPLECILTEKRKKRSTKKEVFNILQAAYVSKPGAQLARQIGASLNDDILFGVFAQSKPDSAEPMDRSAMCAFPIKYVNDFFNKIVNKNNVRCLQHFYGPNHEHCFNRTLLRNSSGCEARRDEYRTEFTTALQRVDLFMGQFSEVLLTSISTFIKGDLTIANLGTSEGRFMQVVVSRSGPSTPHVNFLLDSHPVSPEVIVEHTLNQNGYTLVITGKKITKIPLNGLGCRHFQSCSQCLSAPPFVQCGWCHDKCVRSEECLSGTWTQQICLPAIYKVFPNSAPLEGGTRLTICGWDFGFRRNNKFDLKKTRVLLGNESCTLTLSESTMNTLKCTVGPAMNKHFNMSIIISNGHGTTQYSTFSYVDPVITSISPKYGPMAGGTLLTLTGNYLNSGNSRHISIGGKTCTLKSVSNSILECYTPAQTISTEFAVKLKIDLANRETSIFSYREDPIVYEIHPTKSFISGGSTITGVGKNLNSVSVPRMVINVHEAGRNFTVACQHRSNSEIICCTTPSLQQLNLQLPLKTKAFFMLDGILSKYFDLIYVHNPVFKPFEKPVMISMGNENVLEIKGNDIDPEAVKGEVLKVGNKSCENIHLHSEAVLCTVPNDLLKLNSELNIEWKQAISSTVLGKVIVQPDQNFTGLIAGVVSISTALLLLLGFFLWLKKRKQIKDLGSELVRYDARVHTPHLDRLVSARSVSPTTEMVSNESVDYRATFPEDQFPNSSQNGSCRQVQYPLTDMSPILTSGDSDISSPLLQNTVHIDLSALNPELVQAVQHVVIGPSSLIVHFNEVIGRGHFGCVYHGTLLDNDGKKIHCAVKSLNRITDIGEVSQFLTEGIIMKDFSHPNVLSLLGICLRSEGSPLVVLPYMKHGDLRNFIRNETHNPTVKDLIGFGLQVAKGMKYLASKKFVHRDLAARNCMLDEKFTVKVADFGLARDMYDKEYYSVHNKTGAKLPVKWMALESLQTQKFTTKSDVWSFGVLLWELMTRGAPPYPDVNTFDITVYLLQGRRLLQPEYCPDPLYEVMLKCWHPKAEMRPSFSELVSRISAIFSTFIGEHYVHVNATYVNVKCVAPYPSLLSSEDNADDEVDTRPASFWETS

On to `O=C(Nc1ccc(Oc2ccnc(NC(=O)C3CC3)c2)cc1)c1c2n(n(-c3ccccc3)c1=O)CCC2` [Ex. 2, N-(4-((2-(cyclopropanecarboxamido)pyridin-4-yl)oxy)phenyl)-2-oxo-1-phenyl-2,4,5,6-tetrahydro-1H-pyrrolo[1,2-b]pyrazole-3-carboxamide], for which the half-life worked out at 4.07 h in data set [1] and 3.19 h in data set [2]. Besides, the CLint scaled in data set [1] was 7.13 mL/min/kg; in data set [2], 13 mL/min/kg. The compound also showed an IC50 in data set [3] of 26 nM.
Regarding `CC(=O)Nc1cc(Oc2ccc(NC(=O)c3c4n(n(-c5ccccc5)c3=O)CCC4)cc2)ccn1` [Ex. 3, N-(4-((2-acetamidopyridin-4-yl)oxy)phenyl)-2-oxo-1-phenyl-2,4,5,6-tetrahydro-1H-pyrrolo[1,2-b]pyrazole-3-carboxamide], in data set [1], the half-life was 32.2 h and the CLint scaled was 0.9 mL/min/kg. Further, in data set [2], the half-life worked out at 5.7 h and the CLint scaled was 7.26 mL/min/kg. The same compound gave a 50% inhibitory concentration (IC50) in data set [3] of 100 nM.
Turning to `CC(=O)Nc1cc(Oc2ccc(NC(=O)c3c4n(n(-c5ccccc5)c3=O)CCOC4)nc2)ccn1` [Ex. 12, N-(5-((2-acetamidopyridin-4-yl)oxy)pyridin-2-yl)-2-oxo-1-phenyl-2,4,6,7-tetrahydro-1H-pyrazolo[5,1-c][1,4]oxazine-3-carboxamide], the T1/2 entry in data set [1] is “∞”. In addition, in data set [2], the half-life was 16.6 h and the CLint scaled was 2.49 mL/min/kg. For the same compound, inhibition in data set [3] was half-maximal at 54 nM (IC50).
For the compound `O=C(Nc1ccc(Oc2ccnc(NC(=O)C3CC3)c2)cn1)c1c2n(n(-c3ccccc3)c1=O)CCC2` [Ex. 14, N-(5-((2-(cyclopropanecarboxamido)pyridin-4-yl)oxy)pyridin-2-yl)-2-oxo-1-phenyl-2,4,5,6-tetrahydro-1H-pyrrolo[1,2-b]pyrazole-3-carboxamide], in data set [1], the half-life is 8.47 h and the CLint scaled was 3.42 mL/min/kg. Moreover, in data set [2], the half-life was 3.32 h and the CLint scaled was 12.5 mL/min/kg. It took 21 nM to reach half-maximal inhibition in data set [3] (IC50).
Consider `O=C(Nc1ccc(Oc2ccnc(NC(=O)C3CC3)c2)cc1)c1c2n(n(-c3ccccc3)c1=O)CCOC2` [Ex. 19, N-(4-((2-(cyclopropanecarboxamido)pyridin-4-yl)oxy)phenyl)-2-oxo-1-phenyl-2,4,6,7-tetrahydro-1H-pyrazolo[5,1-c][1,4]oxazine-3-carboxamide], for which, in data set [1], the T1/2 entry was “∞”. In data set [2], the half-life turned out to be 2.87 h and the CLint scaled was 14.4 mL/min/kg. For the same compound, the IC50 in data set [3] amounted to 41 nM.
